13 compounds from US12024500B2, “Five-membered ring-substituted pyridazinol compounds and derivatives, preparation methods, herbicidal compositions and applications thereof” (Qingdao Kingagroot Chemical Compound Co., Ltd., priority 2018, dated 2024) can be followed below.

What all share (type): in vivo
One experiment relates to Digitaria sanguinalis. Description: Post-emergence weed control test (comparative experiment). The following applies: 300 g/ha, 3 weeks after spraying. An excerpt: (§1) The activity level standard of harmful plant destruction (i.e. growth inhibition rate) is as follows: • Level 10: completely dead; • Level 9: above 90% growth inhibition rate; • Level 8: above 80% growth inhibition rate; • Level 7: above 70% growth inhibition rate; • Level 6: above 60% growth inhibition rate; • Level 5: above 50% growth inhibition rate; • Level 4: above 40% growth inhibition rate; • Level 3: above 30% growth inhibition rate; • Level 2: above 20% growth inhibition rate; • Level 1: below 20% growth inhibition rate; • Level 0: no effect.
(§2) The above described growth inhibition rates are fresh weight inhibition rates.
(§3) Experiment of post-emergence test: monocotyledonous and dicotyledonous weed seeds as well as main crop seeds (i.e., wheat, corn, rice, soybean, cotton, oilseed rape, millet and sorghum) were put into a plastic pot loaded with soil, then covered with 0.5-2 cm of soil, and the seeds were allowed to grow in good greenhouse environment. The test plants were treated at 4-5 leaf stage 2-3 weeks after sowing. The test compounds of the invention were dissolved in acetone respectively, then added with Tween-80 and diluted by a certain amount of water to give solutions with certain concentrations. The solution was sprayed to the plants with a sprayer. The plants were cultured for 3 weeks in the greenhouse.

Another experiment has as its system Echinochloa crus-galli. Described as above. As to conditions: 300 g/ha, 3 weeks after spraying.
Description: as §1, §2, §3

The next experiment deals with Chenopodiaceae. Description: Post-emergence weed control test (greenhouse pot, spray). As to conditions: 3 weeks after spraying.
Description: as §1, §2, §3

For another experiment, the system named is Setaria viridis. The description is as above. As to conditions: 3 weeks after spraying; for weed control effect (activity level), Setaria viridis, comparison experiment: 300 g/ha; for inhibition at 2000 g/ha: Setaria viridis, 504 h, read-out: weed control effect (activity level, fresh weight growth inhibition rate), Setaria viridis.
Description: as §1, §2, §3

In another experiment the test system is Veronica polita. Described as above. As to conditions: 3 weeks after spraying; for weed control effect (activity level), Veronica polita, comparison experiment: 300 g/ha.
Description: as §1, §2, §3

For the next experiment, the system named is Amaranthus retroflexus. The description is as above. The following applies: 3 weeks after spraying.
Description: as §1, §2, §3

In another experiment the test system is Rorippa indica. Described as above. As to conditions: 3 weeks after spraying; for weed control effect (activity level), Rorippa indica, comparison experiment: 300 g/ha.
Description: as §1, §2, §3

Where [1] appears, read: 504 h, read-out: weed control effect (activity level, fresh weight growth inhibition rate), Chenopodiaceae.
Where [2] appears, read: Veronica polita, 504 h, read-out: weed control effect (activity level, fresh weight growth inhibition rate), Veronica polita.
Setting [3] is: Amaranthus retroflexus, 504 h, read-out: weed control effect (activity level, fresh weight growth inhibition rate), Amaranthus retroflexus.

For `CCCCCOC(=O)Oc1cc(Cl)nnc1-c1cc(C)nn1C` [Compound 1-1], the “weed control effect (activity level), Digitaria sanguinalis, comparison experiment” value with Digitaria sanguinalis is given as 8 (Level 8: above 80% growth inhibition rate). The “weed control effect (activity level), Echinochloa crus-galli, comparison experiment” value in the experiment with Echinochloa crus-galli is 8 (Level 8: above 80% growth inhibition rate). In addition, the inhibition at 2000 g/ha with Chenopodiaceae (setting [1]), in the experiment with Setaria viridis, with Veronica polita (setting [2]) and in the experiment with Amaranthus retroflexus (setting [3]) was 100% each time. Also, the “weed control effect (activity level), Setaria viridis, comparison experiment” value with Setaria viridis was 10. The “weed control effect (activity level), Veronica polita, comparison experiment” value with Veronica polita was 10. Moreover, in the experiment on Rorippa indica, the “weed control effect (activity level), Rorippa indica, comparison experiment” value came out at 10.
For `Cc1cc(-c2nnc(Cl)cc2OC(=S)Oc2cccs2)n(C)n1` [Compound 1-5], the inhibition at 2000 g/ha in the experiment with Chenopodiaceae (setting [1]), with Setaria viridis, in the experiment with Veronica polita (setting [2]) and with Amaranthus retroflexus (setting [3]) was 100% throughout.
Take `Cc1cc(-c2nnc(Cl)cc2OC(C)OC(=O)OC(C)C)n(C)n1` (stereo not drawn) [Compound 1-6]: the inhibition at 2000 g/ha in the experiment with Chenopodiaceae (setting [1]), in the experiment on Setaria viridis, with Veronica polita (setting [2]) and in the experiment with Amaranthus retroflexus (setting [3]) was 100% throughout.
On to `CCSC(=O)Oc1cc(Cl)nnc1-c1cc(C)nn1C` [Compound 1-8], for which the inhibition at 2000 g/ha with Chenopodiaceae (setting [1]), with Setaria viridis, in the experiment on Veronica polita (setting [2]) and in the experiment on Amaranthus retroflexus (setting [3]) was 100% throughout.
As for `Cc1cc(-c2nnc(Cl)cc2OC(=O)N2CCOCC2)n(C)n1` [Compound 1-9], the inhibition at 2000 g/ha in the experiment on Chenopodiaceae (setting [1]), in the experiment on Setaria viridis, in the experiment with Veronica polita (setting [2]) and with Amaranthus retroflexus (setting [3]) was 100% throughout.
As to `Cc1cc(-c2nnc(Cl)cc2O)n(C)n1` [Compound 1], the “weed control effect (activity level), Digitaria sanguinalis, comparison experiment” value in the experiment with Digitaria sanguinalis is recorded as 7 (Level 7: above 70% growth inhibition rate). In addition, the “weed control effect (activity level), Echinochloa crus-galli, comparison experiment” value with Echinochloa crus-galli is listed as 8 (Level 8: above 80% growth inhibition rate). Further, the inhibition at 3000 g/ha came out at 100% in the experiment on Chenopodiaceae (504 h, 3000 g/ha, read-out: weed control effect (activity level, fresh weight growth inhibition rate), Chenopodiaceae); 100% in the experiment with Veronica polita (Veronica polita, 504 h, 3000 g/ha, read-out: weed control effect (activity level, fresh weight growth inhibition rate), Veronica polita); 100% in the experiment with Amaranthus retroflexus (Amaranthus retroflexus, 504 h, 3000 g/ha, read-out: weed control effect (activity level, fresh weight growth inhibition rate), Amaranthus retroflexus); 100% in the experiment with Rorippa indica (Rorippa indica, 504 h, 3000 g/ha, read-out: weed control effect (activity level, fresh weight growth inhibition rate), Rorippa indica). Further, the “weed control effect (activity level), Setaria viridis, comparison experiment” value in the experiment with Setaria viridis is 10. Also, the “weed control effect (activity level), Veronica polita, comparison experiment” value with Veronica polita turned out to be 10. Also, the “weed control effect (activity level), Rorippa indica, comparison experiment” value in the experiment with Rorippa indica is reported as 10.
As to `Cn1nccc1-c1nnc(Cl)cc1O` [Compound 29], in the experiment on Digitaria sanguinalis, the “weed control effect (activity level), Digitaria sanguinalis, comparison experiment” value is 6 (Level 6: above 60% growth inhibition rate). The “weed control effect (activity level), Echinochloa crus-galli, comparison experiment” value in the experiment on Echinochloa crus-galli is given as 8 (Level 8: above 80% growth inhibition rate). Besides, the “weed control effect (activity level, fresh weight growth inhibition rate), Chenopodiaceae” value in the experiment on Chenopodiaceae (3000 g/ha) is 10 (Level 10: completely dead). Besides, the “weed control effect (activity level), Setaria viridis, comparison experiment” value in the experiment with Setaria viridis was 10. Also, in the experiment with Veronica polita, the “weed control effect (activity level), Veronica polita, comparison experiment” value is on record as 9 (Level 9: above 90% growth inhibition rate). Also, the “weed control effect (activity level, fresh weight growth inhibition rate), Veronica polita” value in the experiment on Veronica polita (3000 g/ha) is 10 (Level 10: completely dead). Also, the “weed control effect (activity level, fresh weight growth inhibition rate), Amaranthus retroflexus” value in the experiment with Amaranthus retroflexus (3000 g/ha) is recorded as 10 (Level 10: completely dead). Further, the “weed control effect (activity level), Rorippa indica, comparison experiment” value with Rorippa indica is 10. For the same compound, the “weed control effect (activity level, fresh weight growth inhibition rate), Rorippa indica” value in the experiment with Rorippa indica (3000 g/ha) is 10 (Level 10: completely dead).
Regarding `CCc1cnn(C)c1-c1nnc(Cl)cc1O` [Compound 81], in the experiment with Chenopodiaceae (3000 g/ha), the “weed control effect (activity level, fresh weight growth inhibition rate), Chenopodiaceae” value was 10 (Level 10: completely dead). In addition, the “weed control effect (activity level, fresh weight growth inhibition rate), Veronica polita” value with Veronica polita (3000 g/ha) is 10 (Level 10: completely dead). Further, the “weed control effect (activity level, fresh weight growth inhibition rate), Amaranthus retroflexus” value in the experiment on Amaranthus retroflexus (3000 g/ha) is recorded as 10 (Level 10: completely dead). The “weed control effect (activity level, fresh weight growth inhibition rate), Rorippa indica” value with Rorippa indica (3000 g/ha) is recorded as 10 (Level 10: completely dead).
For `Cn1ncc(C2CC2)c1-c1nnc(Cl)cc1O` [Compound 82], the “weed control effect (activity level, fresh weight growth inhibition rate), Chenopodiaceae” value in the experiment with Chenopodiaceae (3000 g/ha) is reported as 10 (Level 10: completely dead). In addition, in the experiment on Veronica polita (3000 g/ha), the “weed control effect (activity level, fresh weight growth inhibition rate), Veronica polita” value is 10 (Level 10: completely dead). Besides, the “weed control effect (activity level, fresh weight growth inhibition rate), Amaranthus retroflexus” value in the experiment with Amaranthus retroflexus (3000 g/ha) was 10 (Level 10: completely dead). Further, the “weed control effect (activity level, fresh weight growth inhibition rate), Rorippa indica” value in the experiment on Rorippa indica (3000 g/ha) is 10 (Level 10: completely dead).
Turning to `Cn1ncc(C(F)(F)F)c1-c1nnc(Br)cc1O` [Compound 95], the “weed control effect (activity level, fresh weight growth inhibition rate), Chenopodiaceae” value in the experiment with Chenopodiaceae (3000 g/ha) is given as 10 (Level 10: completely dead). In addition, in the experiment with Veronica polita (3000 g/ha), the “weed control effect (activity level, fresh weight growth inhibition rate), Veronica polita” value is listed as 10 (Level 10: completely dead). In addition, the “weed control effect (activity level, fresh weight growth inhibition rate), Amaranthus retroflexus” value with Amaranthus retroflexus (3000 g/ha) was 10 (Level 10: completely dead). Besides, in the experiment with Rorippa indica (3000 g/ha), the “weed control effect (activity level, fresh weight growth inhibition rate), Rorippa indica” value is on record as 10 (Level 10: completely dead).
Consider `CC(=O)n1nccc1-c1nnc(Cl)cc1O` [Compound 130], for which the “weed control effect (activity level, fresh weight growth inhibition rate), Chenopodiaceae” value in the experiment with Chenopodiaceae (3000 g/ha) is on record as 10 (Level 10: completely dead). Also, the “weed control effect (activity level, fresh weight growth inhibition rate), Veronica polita” value in the experiment with Veronica polita (3000 g/ha) is reported as 10 (Level 10: completely dead). In addition, in the experiment on Amaranthus retroflexus (3000 g/ha), the “weed control effect (activity level, fresh weight growth inhibition rate), Amaranthus retroflexus” value is listed as 10 (Level 10: completely dead). Besides, the “weed control effect (activity level, fresh weight growth inhibition rate), Rorippa indica” value with Rorippa indica (3000 g/ha) is on record as 10 (Level 10: completely dead).
In the case of `Oc1cc(Cl)nnc1-c1ccccc1` [Control Compound A, reference compound], the “weed control effect (activity level), Digitaria sanguinalis, comparison experiment” value with Digitaria sanguinalis is listed as 0. Moreover, the “weed control effect (activity level), Echinochloa crus-galli, comparison experiment” value in the experiment on Echinochloa crus-galli was 0. Moreover, in the experiment on Setaria viridis, the “weed control effect (activity level), Setaria viridis, comparison experiment” value was 2 (Level 2: above 20% growth inhibition rate). For the same compound, in the experiment on Veronica polita, the “weed control effect (activity level), Veronica polita, comparison experiment” value is listed as 5 (Level 5: above 50% growth inhibition rate). In addition, the “weed control effect (activity level), Rorippa indica, comparison experiment” value in the experiment on Rorippa indica is listed as 2 (Level 2: above 20% growth inhibition rate).
For the compound `CCCCCCCCSC(=O)Oc1cc(Cl)nnc1-c1ccccc1` [Control Compound B, reference compound], the “weed control effect (activity level), Digitaria sanguinalis, comparison experiment” value in the experiment with Digitaria sanguinalis turned out to be 0. Besides, the “weed control effect (activity level), Echinochloa crus-galli, comparison experiment” value in the experiment with Echinochloa crus-galli was determined as 0. In addition, in the experiment on Setaria viridis, the “weed control effect (activity level), Setaria viridis, comparison experiment” value was 2 (Level 2: above 20% growth inhibition rate). Also, in the experiment on Veronica polita, the “weed control effect (activity level), Veronica polita, comparison experiment” value is reported as 5 (Level 5: above 50% growth inhibition rate). Also, in the experiment with Rorippa indica, the “weed control effect (activity level), Rorippa indica, comparison experiment” value was 3 (Level 3: above 30% growth inhibition rate).

As usually defined, the inhibition is the relative decrease from the control value, in per cent.
